Source: patent US8334267B2, “Mangiferin calcium salts, the method for its preparation and its use” (Hainan Deze Drug Research Co., Ltd., priority 2007, dated 2012)

Columns and labels:
GK rats = experiment: Efficacy in GK model (plasma glucose, insulin, lipids); assay type: in vivo, Goto-Kakizaki rats (GK)
Protocol: Rosiglitazone Hydrochloride tablets were purchased from Zhejiang wanma pharmaceutical Co., Ltd. Mangiferin and mangiferin calcium were suspended with 3% sodium carboxymethyl cellulose before use.
Goto-Kakizaki rats (GK) (16 weeks age, ♀ ♂) were purchased from Shanghai SLAC laboratory animal Co., Ltd. The animals were kept in IVC cages with temperature (22° C.). There are two rats in each cage.
Experimental group: GK rats group (n=10); mangiferin groups (20, 40, 80 mg/kg, each 10 rats); mangiferin calcium groups (10, 20, 40 mg/kg, each 10 rats); Rosiglitazone Hydrochloride group [3 mg/kg, n=10]. Test samples or vehicle control was given orally for 30 days. GK rats group were given vehicle.
The blood specimens were taken by abdominal aorta at the end of the test. Plasma glucose (GLU), insulin (INS), triglycerides (TG), total cholesterol (TC), high density lipoprotein (HDL), low density lipoprotein (LDL) were determined
GLU, TC, TG, HDL and LDL levels were determined using GF-D800 semi-auto chemist which was purchased from Shandong Gaomi Caihong Analytical Instrument Co., Ltd. Insulin: radioimmunoassay (RIA), γ counter counts. insulin RIA Kit was purchased from Shandong Weifang City three-dimensional (3V) Biological company.
Statistics: The results have been calculated as mean±SD ( x±SD) and comparisons of the data have been done by t-test.

[1] = Stability of mangiferin calcium by preparation route; assay type: physicochemical; conditions: mangiferin calcium made by reacting mangiferin with calcium hydroxide; changes much in 2 hours
Protocol: 3, The water solution of mangiferin calcium which mangiferin reacted with calcium hydroxide is unstable, it changes much in 2 hours. The reaction of mangiferin with other alkaline calcium like calcium bicarbonate or calcium acetate is difficult because they are alkalescent. The productivity is very low.
5, Mangiferin monosodium (or monopotassium) is come into being first; then mangiferin monosodium (or monopotassium) reacts with water-solubility calcium salt, and mangiferin calcium is come into being. The mangiferin calcium which is obtained by this method is stability, and the productivity is high.

[2] = Pharmacokinetics of mangiferin and mangiferin calcium after oral administration; assay type: in vivo, rats; conditions: rats, oral 100 mg/kg
Protocol: 1, The Confect of Drug Solution
Mangiferin is suspended in Carboxymethyl cellulose sodium solution which concentration is one percent; the mangiferin concentration is 10 mg/mL, which is sample A.
All rats were fasted for 16 hours, free drinking water. The rats are oral administrated separately sample A and sample B, which dose is 100 mg/kg. The rats were taken whole blood in 5 minutes before oral administrated and 15 min, 30 min, 45 min, 60 min, 90 min, 120 min, 180 min, 240 min, 300 min, 360 min, 480 min after oral administrated. Serum is separated from these blood samples.
Serum Samples are extracted accurately 0.2 ml into centrifuge tubes separately; then 40 μL cold trichloroacetic acid solution which concentration is ten percent is added into centrifuge tubes separately. The samples are whorled 3 minutes; then centrifuged 12000 r/min for 10 minutes, 120 μl the up layer solution are extracted from centrifuge tubes and put into sample bottles separately. All the samples are detected by HPLC.
Apparatus: Angilent 1100 HPLC (American Agilent Co.), include G1312A dual pump G1313A Auto-Sampler.
Chromatographic column: discover ODS column (250 mm×6 mm, 5 μm);
The mobile phase: Acetonitrile—0.1% H3PO4 water (13:87 v/v)
Velocity of flow: 1.0 ml/min
Detection Wavelength: 254 nm.
Column temperature: 30° C.

STZ rats = experiment: Efficacy in STZ model (plasma glucose, insulin, lipids, glucose clamp); assay type: in vivo, wistar rats; conditions: for Glucose infusion rate: glucose clamp; for FFA / GLU / INS / TG: high fat chow
Protocol: Rosiglitazone Hydrochloride tablets were purchased from Zhejiang wanma pharmaceutical Co., Ltd. Mangiferin and mangiferin calcium salts were suspended with 3% sodium carboxymethyl cellulose.
Normal female wistar rats (SPF, 3 months age, 180-200 g) were purchased from Hainan provincial peoples hospital experimental Animal Center. The animals were kept in a room temperature (25˜28° C.) with free access of food and water. A light-dark cycle (6 a.m and 6 p.m) was strictly enforced. High fat chow is composed of 55% basic chow, 2% protein, 16% fat, 27% white sugar.
Model: After the rats were fasted for 12 hours, the rats are injected 30-35 mg/kg streptozotocin (STZ) solution once by tail vein. STZ solution is prepared to 2% concentration with […], pH 4.4 citrate-sodium citrate buffer before use. The model rats were weighed, taked out tail vein blood, tested blood glucose when the Model is done after 14 days after fasting for 12 hours, then injected 20% glucose solution ([…]) by intraperitoneal, determined blood glucose in 0.5 h, 1 h, 2 h. The rats whose glucose tolerance is abnormal were brought into experiments. Normal wistar rats were fed normal chow, model rats were fed high fat chow.
Experimental group:normal wistar rats group (n=10); after Diabetes model is succeed, the rats were randomly divided into 7 groups: Diabetes model group (n=10); mangiferin groups (20, 40, 80 mg/kg, each 10 rats); mangiferin calcium groups (10, 20, 40 mg/kg, each 10 rats); Rosiglitazone Hydrochloride group [3 mg/kg, n=10]. Test samples or vehicle control was given orally for 8 weeks. Diabetes model group and normal group were given vehicle.
Determination of insulin sensitivity (Glucose infusion rate): Using glucose clamp technique, in accordance with Konglingdong'method ? KONG Ling-dong, ZHU Liang-zheng, SONG Ju-min, etc al. Intervention Effects of Tiaozhi Jiangtang Tablet on Insulin Resistance in Rats with Diabetes Mellitus Type 2.
Determination of plasma glucose and lipid: Rats were taken whole blood after killed, then serum was separated, determined plasma glucose (GLU), insulin (INS), triglycerides (TG) and free fatty acids (FFA).
GLU and TG levels were determined using GF-D800 semi-auto chemist which was purchased from Shandong Gaomi Caihong Analytical Instrument Co., Ltd. Free fatty acids were determined using copper colorimetric determination. The kits for Determination of free fatty acids were purchased from Nanjing Jiancheng Bioengineering Institute. Insulin: radioimmunoassay (RIA), γ counter counts. insulin RIA Kit was purchased from Shandong Weifang City three-dimensional (3V) Biological company.
Statistics: The results have been calculated as mean±SD ( x±SD) and compareisons of the data have been done by t-test.

[3] = Water solubility test in distilled water; conditions: for dissolves in 30 minutes: prepared per example 8
Protocol: 5 mg mangiferin powder which is weighed up accurately is put into 50 ml distilled water, the solution is shaked acutely 30 second every 5 minutes.
100 mg mangiferin calcium powder which is obtained by the method for preparation of example 8 and weighed up accurately is put into 50 ml distilled water, the solution is shaked acutely 30 second every 5 minutes.

O=c1c2cc(O)c(O)cc2oc2cc([O-])c([C@@H]3O[C@H](CO)[C@@H](O)[C@H](O)[C@H]3O)c(O)c12.O=c1c2cc([O-])c(O)cc2oc2cc(O)c([C@@H]3O[C@H](CO)[C@@H](O)[C@H](O)[C@H]3O)c(O)c12.[Ca+2] [Mangiferin calcium, mangiferin calcium]
GLU (GK rats; 10 mg/kg orally for 30 days): 24.06 ± 1.57 mmol/L | HDL (GK rats; 10 mg/kg orally for 30 days): 0.81 ± 0.07 mmol/L | INS (GK rats; 10 mg/kg orally for 30 days): 27.48 ± 8.70 μ IU/ml | LDL (GK rats; 10 mg/kg orally for 30 days): 1.26 ± 0.18 mmol/L | TC (GK rats; 10 mg/kg orally for 30 days): 2.43 ± 0.21 mmol/L | TG (GK rats; 10 mg/kg orally for 30 days): 1.79 ± 0.22 mmol/L | improvement of TC, HDL and LDL in diabetic GK rats (GK rats; 10 mg/kg orally for 30 days): significantly improves | GLU (GK rats; 20 mg/kg orally for 30 days): 23.34 ± 1.67 mmol/L | HDL (GK rats; 20 mg/kg orally for 30 days): 0.80 ± 0.10 mmol/L | INS (GK rats; 20 mg/kg orally for 30 days): 20.45 ± 6.36 μ IU/ml | LDL (GK rats; 20 mg/kg orally for 30 days): 1.31 ± 0.10 mmol/L | TC (GK rats; 20 mg/kg orally for 30 days): 2.47 ± 0.08 mmol/L | TG (GK rats; 20 mg/kg orally for 30 days): 1.60 ± 0.41 mmol/L | improvement of GLU, TC, TG, HDL and LDL and INS in diabetic GK rats (GK rats; 20 mg/kg orally for 30 days): significantly improves | GLU (GK rats; 40 mg/kg orally for 30 days): 23.17 ± 1.58 mmol/L | HDL (GK rats; 40 mg/kg orally for 30 days): 0.80 ± 0.09 mmol/L | INS (GK rats; 40 mg/kg orally for 30 days): 16.79 ± 5.37 μ IU/ml | LDL (GK rats; 40 mg/kg orally for 30 days): 1.37 ± 0.11 mmol/L | TC (GK rats; 40 mg/kg orally for 30 days): 2.49 ± 0.07 mmol/L | TG (GK rats; 40 mg/kg orally for 30 days): 1.57 ± 0.39 mmol/L | stability of water solution [1]: unstable | bioavailability ([2]; compared with mangiferin): better than mangiferin | Cmax ([2]; serum): 48300 ± 600 ng/mL | T1/2β ([2]; serum): 1.02 ± 0.128 h | improvement of GLU, TG, FFA, INS, Glucose infusion rate in diabetic rats (STZ rats; 10 mg/kg orally for 8 weeks): significantly improves | Glucose infusion rate (STZ rats; 10 mg/kg orally for 8 weeks): 17.56 ± 3.45 mg/kg · min | Glucose infusion rate (STZ rats; 20 mg/kg orally for 8 weeks): 24.37 ± 3.75 mg/kg · min | Glucose infusion rate (STZ rats; 40 mg/kg orally for 8 weeks): 26.36 ± 3.58 mg/kg · min | FFA (STZ rats; 10 mg/kg orally for 8 weeks): 1.54 ± 0.23 µmol/L | GLU (STZ rats; 10 mg/kg orally for 8 weeks): 8.01 ± 0.32 mmol/L | INS (STZ rats; 10 mg/kg orally for 8 weeks): 27.63 ± 3.46 μ IU/ml | TG (STZ rats; 10 mg/kg orally for 8 weeks): 2.49 ± 0.18 mmol/L | FFA (STZ rats; 20 mg/kg orally for 8 weeks): 1.28 ± 0.14 µmol/L | GLU (STZ rats; 20 mg/kg orally for 8 weeks): 7.31 ± 0.22 mmol/L | INS (STZ rats; 20 mg/kg orally for 8 weeks): 23.57 ± 3.68 μ IU/ml | TG (STZ rats; 20 mg/kg orally for 8 weeks): 1.93 ± 0.36 mmol/L | FFA (STZ rats; 40 mg/kg orally for 8 weeks): 1.13 ± 0.18 µmol/L | GLU (STZ rats; 40 mg/kg orally for 8 weeks): 6.91 ± 2.02 mmol/L | INS (STZ rats; 40 mg/kg orally for 8 weeks): 20.53 ± 4.42 μ IU/ml | TG (STZ rats; 40 mg/kg orally for 8 weeks): 1.49 ± 0.28 mmol/L | dissolves in 30 minutes ([3]; 50 mg powder in 50 ml distilled water): can dissolve | dissolves in 30 minutes ([3]; 100 mg powder in 50 ml distilled water): can not dissolve completely | water solubility ([3]; distilled water, shaken 30 second every 5 minutes, 30 minutes): more than 1 mg/ml
